Assay results reported in ChEMBL document CHEMBL5390239, “A Novel 7H-[1,2,4]Triazolo[3,4-b]thiadiazine-based Cystic Fibrosis Transmembrane Conductance Regulator Potentiator Directed toward Treatment of Cystic Fibrosis” (ACS Med Chem Lett, 2023).
The source made the active and inactive calls. The rule behind the calls is not given here.

These molecules were tested on Cystic fibrosis transmembrane conductance regulator (Homo sapiens), P13569 [N1303K] (assay: Corrector activity at HRP tagged CFTR N1303K mutant (unknown origin) expressed in FRT cells assessed as stabilization of CFTR mutant in plasma membrane by measuring enhanced HRP signal at 5 uM incubated for 24 hrs by ELISA). Details: filed as activator.
Sequence of Cystic fibrosis transmembrane conductance regulator (Homo sapiens), P13569 [N1303K] (P13569 whole entry N1303K): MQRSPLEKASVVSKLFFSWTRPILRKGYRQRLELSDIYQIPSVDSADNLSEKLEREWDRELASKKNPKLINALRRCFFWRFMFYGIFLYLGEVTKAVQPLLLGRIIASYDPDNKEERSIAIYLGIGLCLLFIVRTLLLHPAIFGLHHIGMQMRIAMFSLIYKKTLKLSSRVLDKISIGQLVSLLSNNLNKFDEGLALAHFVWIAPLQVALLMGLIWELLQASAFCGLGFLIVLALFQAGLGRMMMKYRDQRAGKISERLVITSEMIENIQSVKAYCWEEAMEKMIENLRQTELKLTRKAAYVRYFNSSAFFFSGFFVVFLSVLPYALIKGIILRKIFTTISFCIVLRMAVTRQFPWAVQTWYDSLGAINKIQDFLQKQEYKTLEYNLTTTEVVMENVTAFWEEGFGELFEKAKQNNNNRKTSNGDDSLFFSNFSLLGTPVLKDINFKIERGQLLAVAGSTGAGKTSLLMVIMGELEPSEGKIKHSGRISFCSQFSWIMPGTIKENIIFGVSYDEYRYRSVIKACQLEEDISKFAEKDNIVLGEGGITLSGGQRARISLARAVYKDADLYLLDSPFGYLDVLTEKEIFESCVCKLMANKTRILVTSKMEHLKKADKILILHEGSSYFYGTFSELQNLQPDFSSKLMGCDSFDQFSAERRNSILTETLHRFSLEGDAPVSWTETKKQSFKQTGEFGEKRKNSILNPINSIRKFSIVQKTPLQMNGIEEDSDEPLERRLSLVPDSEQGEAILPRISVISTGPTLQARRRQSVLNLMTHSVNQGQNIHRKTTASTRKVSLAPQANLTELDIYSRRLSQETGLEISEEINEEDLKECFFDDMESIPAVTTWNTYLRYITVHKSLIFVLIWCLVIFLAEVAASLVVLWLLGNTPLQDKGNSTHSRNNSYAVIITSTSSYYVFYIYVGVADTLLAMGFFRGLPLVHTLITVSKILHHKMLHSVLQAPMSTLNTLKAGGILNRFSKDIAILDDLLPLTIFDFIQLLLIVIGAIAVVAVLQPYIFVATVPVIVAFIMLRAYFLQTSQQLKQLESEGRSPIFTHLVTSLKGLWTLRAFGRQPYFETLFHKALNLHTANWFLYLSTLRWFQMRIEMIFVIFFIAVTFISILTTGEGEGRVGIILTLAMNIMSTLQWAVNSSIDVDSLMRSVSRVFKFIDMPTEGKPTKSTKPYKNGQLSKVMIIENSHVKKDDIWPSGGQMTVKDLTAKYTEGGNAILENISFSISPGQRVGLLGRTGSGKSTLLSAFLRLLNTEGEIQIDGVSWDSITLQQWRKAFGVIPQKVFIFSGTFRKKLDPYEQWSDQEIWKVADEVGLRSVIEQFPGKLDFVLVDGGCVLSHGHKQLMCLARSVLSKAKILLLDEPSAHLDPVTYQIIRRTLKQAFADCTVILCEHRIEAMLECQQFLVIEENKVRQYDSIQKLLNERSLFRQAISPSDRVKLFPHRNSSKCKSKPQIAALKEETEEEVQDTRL

| Activity | SMILES |
| --- | --- |
| Active | CCc1nnc2n1N=C(c1ccc(OC)c(OC)c1)CS2 |

The molecules below were run against Cystic fibrosis transmembrane conductance regulator (Homo sapiens, UniProt P13569, G551D) (assay: Potentiation of CFTR G551D mutant (unknown origin) expressed in FRT cells assessed as increase in chloride current in presence of VX-770 by voltage clamp electrophysiology recording). Details: not given.
Assay type: cell-based

Sequence of Cystic fibrosis transmembrane conductance regulator (P13569 whole entry G551D): as the sequence (P13569 whole entry N1303K) above, with G551D, K1303N counted along it

| EC50 | SMILES |
| --- | --- |
| ~940 nM | CCc1nnc2n1N=C(c1ccc(OC)c(OC)c1)CS2 |

These molecules were tested on Cystic fibrosis transmembrane conductance regulator (Homo sapiens), P13569 [G551D] (assay: Potentiation of CFTR G551D mutant (unknown origin) expressed in FRT cells assessed as increase in chloride current at 10 uM in presence of VX-770 by voltage clamp electrophysiology recording relative to VX-770 alone). Details: filed as activator.
Assay type: cell-based

Sequence of Cystic fibrosis transmembrane conductance regulator (Homo sapiens), P13569 [G551D] (P13569 whole entry G551D): as the sequence (P13569 whole entry N1303K) above, with G551D, K1303N counted along it

| Activity | SMILES |
| --- | --- |
| 267% | CC(C)(C)C1=Nn2c(nnc2-c2cc(Cl)ccc2Br)SC1 |
| 103% | CCc1nnc2n1N=C(c1ccc(Cl)c(Cl)c1)CS2 |
| 159% | FC(F)(F)C1=Nn2c(nnc2-c2ccc(Cl)cc2Cl)SC1 |
| 232% | COc1ccc(Br)c(-c2nnc3n2N=C(C(C)C)CS3)c1 |
| 204% | CC(C)C1=Nn2c(nnc2-c2ccc(Cl)cc2Cl)SC1 |
| 149% | CCC1=Nn2c(nnc2-c2ccc(Cl)cc2)SC1 |
| 155% | CC1=Nn2c(nnc2-c2cc(Cl)ccc2Br)SC1 |
| 118% | CCC1=Nn2c(nnc2-c2cc(Cl)ccc2Br)SC1 |
| 187% | CCC1=Nn2c(nnc2-c2ccc(Cl)c(Cl)c2)SC1 |
| 196% | CC(C)C1=Nn2c(nnc2-c2cc(Cl)ccc2Cl)SC1 |
| 119% | CCC1=Nn2c(nnc2-c2cc(OC)c(OC)c(OC)c2)SC1 |
| 142% | COc1ccc(C2=Nn3c(nnc3-c3ccc(Cl)cc3Cl)SC2)cc1 |

Continued, molecule first:

| SMILES | Activity |
| --- | --- |
| COc1ccc(F)c(-c2nnc3n2N=C(C(C)C)CS3)c1 | 237% |
| COc1ccc(OC)c(-c2nnc3n2N=C(C(C)C)CS3)c1 | 166% |
| CCC1=Nn2c(nnc2-c2cccc(Cl)c2Cl)SC1 | 129% |
| COc1cc(Br)c(-c2nnc3n2N=C(C(C)C)CS3)cc1OC | 106% |
| CCC1=Nn2c(nnc2-c2ccc(OC)c(OC)c2)SC1 | 107% |
| CCc1nnc2n1N=C(c1ccc(OC)c(OC)c1)CS2 | 204% |
| CCC1=Nn2c(nnc2-c2cccc(Cl)c2)SC1 | 162% |
| CC(C)C1=Nn2c(nnc2-c2cc(Cl)ccc2Br)SC1 | 267% |
| CC(C)(C)C1=Nn2c(nnc2-c2ccc(Cl)cc2Cl)SC1 | 379% |
| CC1=Nn2c(nnc2-c2ccc(Cl)cc2Cl)SC1 | 137% |
| FC(F)(F)C1=Nn2c(nnc2-c2cc(Cl)ccc2Br)SC1 | 171% |
| CCC1=Nn2c(nnc2-c2ccc(Cl)cc2Cl)SC1 | 257% |
